Test results published in patent US12281122B1, “PI3K inhibitors” (Cogent Biosciences, Inc., priority 2023, dated 2025).

Experiments:
[1] = biological target: PI3Kα (Homo sapiens, UniProt P42336); test: PI3Kα enzyme assay (Transcreener ADP2 TR-FRET Red Assay); type: biochemical; settings: purified recombinant full-length protein; 2 hours pre-incubation with compound; read-out: PI3Kα WT IC50
Experimental: (§1) Activity against PI3Kα and PI3Kα H1047R enzymes were determined in biochemical assays using purified recombinant full-length proteins with the Transcreener ADP^2 TR-FRET Red Assay from Bellbrook Labs. (Catalogue number 3011-10K). Test compounds were dissolved in DMSO and were tested in 11 point 1:3 serial dilutions, typical final concentration range from 50,000 nM to 0.85 nM. Enzymes were pre-incubated with compounds for 2 hours at room temperature prior to initiating the reactions. Assays were initiated with a 2×ATP/PI(4,5)P2 diC8 substrate mixture. After 60 minutes at room temperature, the reactions were quenched with detection reagent and incubated for an additional 60 minutes at room temperature. The plates were read using a multimode reader and the emission ratio of 665 nm to 615 nm was determined. This ratio was converted to percent of control (POC). [1-(high control-sample signal)/(high control-low control)]*100. Wells without compound were used to determine high control values and wells without enzyme were used to determine low control values. The POC values were fit using a four-parameter logistic model and the value where the fit curve was equal to 50 POC was reported as the IC50 using the Signals VitroVivo software package (PerkinElmer). Final assay conditions were: 40 mM HEPES pH 7.5, 20 mM NaCl, 25 mM MgCl2, 0.01% Triton X-100. The enzyme source, catalogue number, final enzyme concentration, and final ATP and PI(4,5)P2 diC8 concentration can be found in the table E10 below.

[2] = biological target: PI3Kα H1047R (Homo sapiens, UniProt P42336, H1047R); test: PI3Kα H1047R enzyme assay (Transcreener ADP2 TR-FRET Red Assay); type: biochemical; settings: purified recombinant full-length protein; 2 hours pre-incubation with compound
Sequence of PI3Kα H1047R (P42336 whole entry H1047R): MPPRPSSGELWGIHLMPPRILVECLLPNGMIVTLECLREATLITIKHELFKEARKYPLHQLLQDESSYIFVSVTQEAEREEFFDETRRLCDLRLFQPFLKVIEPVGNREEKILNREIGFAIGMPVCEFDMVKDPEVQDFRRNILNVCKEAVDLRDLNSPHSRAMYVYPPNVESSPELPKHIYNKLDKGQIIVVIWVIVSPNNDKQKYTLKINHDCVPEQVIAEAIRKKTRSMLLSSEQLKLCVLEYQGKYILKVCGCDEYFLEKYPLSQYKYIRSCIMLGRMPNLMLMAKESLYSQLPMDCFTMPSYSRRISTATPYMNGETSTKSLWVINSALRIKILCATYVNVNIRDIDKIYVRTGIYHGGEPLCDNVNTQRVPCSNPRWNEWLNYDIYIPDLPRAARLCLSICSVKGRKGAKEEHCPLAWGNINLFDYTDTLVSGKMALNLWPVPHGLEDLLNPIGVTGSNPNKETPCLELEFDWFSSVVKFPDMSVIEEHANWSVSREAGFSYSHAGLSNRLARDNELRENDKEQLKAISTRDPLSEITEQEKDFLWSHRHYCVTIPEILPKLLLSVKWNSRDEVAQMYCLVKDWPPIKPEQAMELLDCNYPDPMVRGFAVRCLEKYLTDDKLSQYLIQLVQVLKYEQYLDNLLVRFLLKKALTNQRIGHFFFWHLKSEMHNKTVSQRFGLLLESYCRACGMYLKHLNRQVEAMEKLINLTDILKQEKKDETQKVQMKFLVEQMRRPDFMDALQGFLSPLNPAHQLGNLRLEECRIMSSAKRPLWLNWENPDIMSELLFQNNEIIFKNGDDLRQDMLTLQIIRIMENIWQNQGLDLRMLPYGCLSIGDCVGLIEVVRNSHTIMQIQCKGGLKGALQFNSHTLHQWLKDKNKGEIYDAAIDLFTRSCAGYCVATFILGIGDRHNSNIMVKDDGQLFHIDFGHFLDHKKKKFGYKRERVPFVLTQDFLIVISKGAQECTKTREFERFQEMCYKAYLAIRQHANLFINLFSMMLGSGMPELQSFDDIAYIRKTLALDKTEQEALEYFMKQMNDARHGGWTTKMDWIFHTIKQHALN
Sequence of PI3Kα H1047R (P27986 2-724 partner): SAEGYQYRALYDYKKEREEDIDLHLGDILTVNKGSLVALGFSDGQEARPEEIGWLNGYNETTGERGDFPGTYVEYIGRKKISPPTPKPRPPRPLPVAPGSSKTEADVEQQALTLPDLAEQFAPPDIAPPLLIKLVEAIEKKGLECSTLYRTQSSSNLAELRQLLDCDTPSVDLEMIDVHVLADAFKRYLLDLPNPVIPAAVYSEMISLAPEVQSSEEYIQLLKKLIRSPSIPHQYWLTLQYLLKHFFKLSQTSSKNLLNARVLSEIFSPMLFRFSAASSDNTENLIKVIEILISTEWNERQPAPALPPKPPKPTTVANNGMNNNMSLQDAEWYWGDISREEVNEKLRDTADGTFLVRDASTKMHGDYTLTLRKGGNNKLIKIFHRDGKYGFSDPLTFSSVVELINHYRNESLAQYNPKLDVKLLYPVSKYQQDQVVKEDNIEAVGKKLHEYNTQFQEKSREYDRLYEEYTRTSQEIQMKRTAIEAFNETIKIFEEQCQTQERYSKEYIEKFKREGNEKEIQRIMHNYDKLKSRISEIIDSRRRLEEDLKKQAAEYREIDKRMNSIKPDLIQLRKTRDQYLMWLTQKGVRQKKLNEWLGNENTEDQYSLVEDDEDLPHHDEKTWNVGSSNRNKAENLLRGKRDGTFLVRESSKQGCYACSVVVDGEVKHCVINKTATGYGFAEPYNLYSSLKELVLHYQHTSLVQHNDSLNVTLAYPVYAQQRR
Experimental: as §1

[3] = tested on: T47D (PI3Kα-H1047R) cell line; test: HTRF phospho-AKT(S473) cell assay in T47D cells; type: cell-based, human; settings: Homo sapiens; T47D (PI3Kα-H1047R) cells, HTRF phospho-AKT(S473), 2 hours compound incubation
How it was run: (§2)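 Cells plated overnight (T47D in RPMI/10% FBS/0.2 units/mL insulin; SKBR3 in McCoy's 5A/10% FBS), then given 12-point 1:3 compound series (top 5 μM T47D, 10 μM SKBR3; ≤0.5% DMSO) for 2 h at 37° C. SKBR3 stimulated with 70 ng/ml PDGF-BB for final 15 min. Lysate pAKT(S473) by HTRF; IC50 calculated.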

[4] = tested on: SKBR3 (PI3Kα-Wild Type) cell line; test: HTRF phospho-AKT(S473) cell assay in SKBR3 cells; type: cell-based, human; settings: Homo sapiens, SK-BR-3; SKBR3 (PI3Kα-Wild Type) cells, HTRF phospho-AKT(S473), 2 hours compound incubation, PDGF-BB stimulated
How it was run: as §2

Sequence of PI3Kα (P42336 whole entry): as the sequence (P42336 whole entry H1047R) above, with R1047H counted along it
Sequence of PI3Kα (P27986 2-724 partner): as the sequence (P27986 2-724 partner) above

Compound	IC50 [1]	IC50 [2]	IC50 [3]	IC50 [4]
Cc1cc([C@@H](C)Nc2ccc(Cl)nc2C(=O)NS(C)(=O)=O)c2nc(NCC3(C(F)(F)F)CC3)n(C)c(=O)c2c1 [Compound 24, (R)-6-chloro-3-((1-(3,6-dimethyl-4-oxo-2-(((1-(trifluoromethyl)cyclopropyl)methyl)amino)-3,4-dihydroquinazolin-8-yl)ethyl)amino)-N-(methylsulfonyl) picolinamide]	≥ 1 µM	0.25 to 0.5 µM	0.25 to 0.5 µM	1 to 5 µM
Cc1cc([C@@H](C)Nc2ccc(Cl)nc2C(=O)NS(C)(=O)=O)c2nc(N3C[C@H](C)O[C@@H](C)C3)n(C)c(=O)c2c1 [Compound 25, 6-chloro-3-(((R)-1-(2-((2S,6S)-2,6-dimethylmorpholino)-3,6-dimethyl-4-oxo-3,4-dihydroquinazolin-8-yl)ethyl)amino)-N-(methylsulfonyl) picolinamide]	≥ 1 µM	≥ 1 µM	0.25 to 0.5 µM	1 to 5 µM
Cc1cc([C@@H](C)Nc2ccc(Cl)nc2C(=O)NS(C)(=O)=O)c2nc(N3C[C@H]4C[C@@H]3CO4)n(C)c(=O)c2c1 [Compound 26, 3-(((R)-1-(2-((1R,4R)-2-oxa-5-azabicyclo[2.2.1]heptan-5-yl)-3,6-dimethyl-4-oxo-3,4-dihydroquinazolin-8-yl)ethyl)amino)-6-chloro-N-(methylsulfonyl) picolinamide]	≥ 1 µM	0.5 to 1 µM	< 0.25 µM	1 to 5 µM
Cc1cc([C@@H](C)Nc2ccc(Cl)nc2C(=O)NS(C)(=O)=O)c2nc(N3C[C@@H]4C[C@H]3CO4)n(C)c(=O)c2c1 [Compound 27, 3-(((R)-1-(2-((1S,4S)-2-oxa-5-azabicyclo[2.2.1]heptan-5-yl)-3,6-dimethyl-4-oxo-3,4-dihydroquinazolin-8-yl)ethyl)amino)-6-chloro-N-(methylsulfonyl) picolinamide]	≥ 1 µM	0.5 to 1 µM	< 0.25 µM	1 to 5 µM
C[C@@H](Nc1ccc(Cl)nc1C(=O)NS(C)(=O)=O)c1cc(F)cc2c(=O)n(C)c(N3Cc4cnn(C)c4C3)nc12 [Compound 28, (R)-6-chloro-3-((1-(6-fluoro-3-methyl-2-(1-methyl-4,6-dihydropyrrolo[3,4-c]pyrazol-5(1H)-yl)-4-oxo-3,4-dihydroquinazolin-8-yl)ethyl)amino)-N-(methylsulfonyl) picolinamide]	≥ 1 µM	0.5 to 1 µM	< 0.25 µM	1 to 5 µM
C[C@@H](Nc1ccc(Cl)nc1C(=O)NS(C)(=O)=O)c1cc(F)cc2c(=O)n(C)c(N3CC4CC4C3)nc12 (stereo partly drawn) [Compound 29, 3-(((1R)-1-(2-(3-azabicyclo[3.1.0]hexan-3-yl)-6-fluoro-3-methyl-4-oxo-3,4-dihydroquinazolin-8-yl)ethyl)amino)-6-chloro-N-(methylsulfonyl) picolinamide]	≥ 1 µM	0.25 to 0.5 µM	0.25 to 0.5 µM	1 to 5 µM
C[C@@H](Nc1ccc(Cl)nc1C(=O)NS(C)(=O)=O)c1cc(F)cc2c(=O)n(C)c(N3CCc4c(cnn4C)C3)nc12 [Compound 30, (R)-6-chloro-3-((1-(6-fluoro-3-methyl-2-(1-methyl-1,4,6,7-tetrahydro-5H-pyrazolo[4,3-c]pyridin-5-yl)-4-oxo-3,4-dihydroquinazolin-8-yl)ethyl)amino)-N-(methylsulfonyl) picolinamide]	≥ 1 µM	0.1 to 0.25 µM	< 0.25 µM	1 to 5 µM
C[C@@H](Nc1ccc(Cl)nc1C(=O)NS(C)(=O)=O)c1cc(F)cc2c(=O)n(C)c(N3CCc4ccccc4C3)nc12 [Compound 31, (R)-6-chloro-3-((1-(2-(3,4-dihydroisoquinolin-2(1H)-yl)-6-fluoro-3-methyl-4-oxo-3,4-dihydroquinazolin-8-yl)ethyl)amino)-N-(methylsulfonyl) picolinamide]	≥ 1 µM	0.1 to 0.25 µM	0.25 to 0.5 µM	1 to 5 µM

The next lines start with the values.

IC50 [1]	IC50 [2]	IC50 [3]	IC50 [4]	Compound
≥ 1 µM	0.25 to 0.5 µM	0.25 to 0.5 µM	1 to 5 µM	Cc1cc([C@@H](C)Nc2ccc(Cl)nc2C(=O)NS(C)(=O)=O)c2nc(N(C)CC3CC3)n(C)c(=O)c2c1 [Compound 14, (R)-6-chloro-3-((1-(2-((cyclopropylmethyl) (methyl)amino)-3,6-dimethyl-4-oxo-3,4-dihydroquinazolin-8-yl)ethyl)amino)-N-(methylsulfonyl) picolinamide]
≥ 1 µM	0.25 to 0.5 µM	0.25 to 0.5 µM	1 to 5 µM	Cc1cc([C@@H](C)Nc2ccc(Cl)nc2C(=O)NS(C)(=O)=O)c2nc(N3CCC3)n(C)c(=O)c2c1 [Compound 15]
≥ 1 µM	0.25 to 0.5 µM	0.25 to 0.5 µM	1 to 5 µM	Cc1cc([C@@H](C)Nc2ccc(Cl)nc2C(=O)NS(C)(=O)=O)c2nc(N3CCCC3)n(C)c(=O)c2c1 [Compound 16]
≥ 1 µM	≥ 1 µM	1 to 5 µM	≥ 5 µM	Cc1cc([C@@H](C)Nc2ccc(Cl)nc2C(=O)NS(C)(=O)=O)c2nc(NCc3ccc(F)cc3C)n(C)c(=O)c2c1 [Compound 17, (R)-6-chloro-3-((1-(2-((4-fluoro-2-methylbenzyl)amino)-3,6-dimethyl-4-oxo-3,4-dihydroquinazolin-8-yl)ethyl)amino)-N-(methylsulfonyl) picolinamide]
≥ 1 µM	≥ 1 µM	1 to 5 µM	≥ 5 µM	Cc1cc([C@@H](C)Nc2ccc(Cl)nc2C(=O)NS(C)(=O)=O)c2nc(NCCC3CC3)n(C)c(=O)c2c1 [Compound 18, (R)-6-chloro-3-((1-(2-((2-cyclopropylethyl)amino)-3,6-dimethyl-4-oxo-3,4-dihydroquinazolin-8-yl)ethyl)amino)-N-(methylsulfonyl) picolinamide]
≥ 1 µM	≥ 1 µM	0.5 to 1 µM	1 to 5 µM	Cc1cc([C@@H](C)Nc2ccc(Cl)nc2C(=O)NS(C)(=O)=O)c2nc(NCC3CC(F)(F)C3)n(C)c(=O)c2c1 [Compound 20, (R)-6-chloro-3-((1-(2-(((3,3-difluorocyclobutyl)methyl)amino)-3,6-dimethyl-4-oxo-3,4-dihydroquinazolin-8-yl)ethyl)amino)-N-(methylsulfonyl) picolinamide]
≥ 1 µM	< 0.1 µM	0.5 to 1 µM	1 to 5 µM	C[C@@H](Nc1ccc(Cl)nc1C(=O)NS(C)(=O)=O)c1cccc2c(=O)n(C)c(N3Cc4ccc(F)cc4C3)nc12 [Compound 23, (R)-6-chloro-3-((1-(2-(5-fluoroisoindolin-2-yl)-3-methyl-4-oxo-3,4-dihydroquinazolin-8-yl)ethyl)amino)-N-(methylsulfonyl) picolinamide]
0.5 to 1 µM	0.25 to 0.5 µM	0.25 to 0.5 µM	1 to 5 µM	C[C@@H](Nc1ccc(Cl)nc1C(=O)NS(C)(=O)=O)c1cc(F)cc2c(=O)n(C)c(N3Cc4cccnc4C3)nc12 [Compound 32, (R)-6-chloro-3-((1-(2-(5,7-dihydro-6H-pyrrolo[3,4-b]pyridin-6-yl)-6-fluoro-3-methyl-4-oxo-3,4-dihydroquinazolin-8-yl)ethyl)amino)-N-(methylsulfonyl) picolinamide]
